One data set has as its system BaF3-tel-NTRK1. The data set is described as follows: Growth inhibition test, CellTiter-Glo, tel-NTRK1-BaF3 cells. It counts as cell-based. The settings on record: 72 hours incubation, read-out: Cell GI50 BaF3-tel-NTRK1. The protocol: (§1) Growth Inhibition Test for Tel-NTRK1-BaF3 and BaF3-LMNA-NTRK1 Cells
(§2) In this experiment, the CellTiter-Glo cell proliferation fluorescence assay was used to test the growth inhibitory effect of a compound on tel-NTRK1-BaF3 and BaF3-LMNA-NTRK1 transgenic cells, and the half maximal growth inhibitory concentration GI50 of the compound on the cells was obtained.
A compound to be tested was dissolved in DMSO to formulate 10 mM of a mother solution. The mother solution was 3× diluted to 10 mM, 3.333 mM, 1.111 mM, 0.370 mM, 0.123 mM, 0.041 mM, 0.014 mM, 0.005 mM, and 0.002 mM. The prepared solutions were each stored in a 0.5 ml sterilized dorft tube (Corning, USA). In addition, an equal volume of DMSO solvent was used as a blank control. With 10 concentration gradients, the plate was stored in vacuum at −20° C.
The tel-NTRK1-BaF3 and BaF3-LMNA-NTRK1 cell lines were cultured with RPMI 1640 (Corning, N.Y., USA)+10% fetal bovine serum (Gibico, Invitrogen, USA). After the cells were thawed, they were cultured for two generations to be tested.
(§3) Logarithmic growth phase cells (2000-2500 cells/well) were inoculated in a 12×8 96-well white opaque cell culture plate (Corning 3570, NY, USA) in a volume of 100 μL per well, and a drug was added to the cell plate (0.1 μL/well) at the final concentration of the compound of 10 μM, 3.3 μM, 1.1 μM, 0.37 μM, 0.12 IM, 0.04 μM, 0.014 IM, 0.005 μM, and 0.002 μM (0.4 uL of the drug solution was added to 400 ul of the cell homogenate, and then mixed uniformly, and the resulting mixture was added at 100 ul per well). The plate was incubated at 37° C. in a 5% CO2 incubator for 72 hours, and then 20 μL CellTiter-Glo cell proliferation fluorescence assay reagent was added. The plate was allowed to stand for 10 min, and read in the Envision Plate-Reader. […]
A corresponding […] value RLU of each well was obtained by reading in the Envision Plate-reader. […]
The biochemical activity of the compounds of the present invention was determined by the above experiment, and the measured GI50 values are shown in table 2: […]
In general terms: ATP-based viability assays read luminescence as a measure of living cells.

A further data set concerns BaF3-LMNA-NTRK1. The data set is described as follows: Growth inhibition test, CellTiter-Glo, BaF3-LMNA-NTRK1 cells. As to conditions: 72 hours incubation, read-out: Cell GI50 BaF3-LMNA-NTRK1. It counts as cell-based. The protocol: as §1, §2
A compound to be tested was dissolved in DMSO to formulate 10 mM of a mother solution. The mother solution was 3× diluted to 10 mM, 3.333 mM, 1.111 mM, 0.370 mM, 0.123 mM, 0.041 mM, 0.014 mM, 0.005 mM, and 0.002 mM. The prepared solutions were each stored in a 0.5 ml sterilized dorft tube (Corning, USA). […]
as §3, with “added.” for “added. The plate was allowed to stand for 10 min, and read in the Envision Plate-Reader.”

The next data set addresses TrkC (Homo sapiens, UniProt Q16288). Put plainly: Inhibitory activity test for Trk kinases (γ-33P-ATP isotope test), TrkC. It is filed as biochemical. The settings on record: 33P-ATP 10 μM, 2 h reaction; read-out: Kinase IC50 TrkC. The protocol:
(§4) Inhibitory Activity Test for Trk Kinases
(§5) In this experiment, the γ-^33P-ATP isotope test was used to test the inhibition effect of a compound on kinases TrkA, TrkB and TrkC, and the half maximal inhibitory concentration IC50 of the inhibitory activity of the compound on the enzymes was obtained.
(§6) A compound was dissolved in 100% DMSO to a particular concentration, and then the resulting solution was gradient-diluted by an automatic loading device to different concentrations of the test samples (DMSO dissolving solutions).
(§7) 3.1. The reaction substrate was diluted using the base reaction buffer;
(§8) 3.2. The kinase was added into the substrate solution and mixed gently and uniformly;
(§9) 3.3. The compounds of different concentrations diluted in 100% DMSO were added into the kinase solution using an automatic loading system, and incubated for 20 min at room temperature;
(§10) 3.4. ^33P-ATP (10 μM, 10 μCi/μl) was added at room temperature to initiate the kinase reaction, and the reaction was carried out for 2 h.
(§11) The reaction solution was subjected to an ion exchange filtration system to remove unreacted ATP and the generated ADP ions during the reaction. Then, the radiometric quantity of ^33P isotope in the substrate was detected.
(§12) The kinase activity in the system with the addition of the inhibitors of different concentrations was calculated from the radiometric quantity, to obtain the inhibitory effect of the compounds with different concentrations on the kinase activity. Fitting was performed using graphpad prism to obtain IC50 values of the compounds for inhibition.

In a further data set the target is TrkB (Homo sapiens, UniProt Q16620). Put plainly: Inhibitory activity test for Trk kinases (γ-33P-ATP isotope test), TrkB. It is filed as biochemical. The settings on record: 33P-ATP 10 μM, 2 h reaction; read-out: Kinase IC50 TrkB. The protocol: as §4, §5, §6, §7, §8, §9, §10, §11, §12
Data set [1] can be described thus: Metabolic stability in human liver microsomes. It is filed as in vitro ADME. The settings on record: for Remaining % (60 min) / microsomal CLint at 1 μmol/L: human liver microsomes 0.5 mg/mL, compound 1 μmol/L; for Remaining % (60 min): 37° C.; for Negative control Remaining % (60 min): human liver microsomes, negative control incubation; for half-life at 1 μmol/L: human, liver microsomes; for half-life at 1 μmol/L / microsomal CLint at 1 μmol/L: pH 7.4; for microsomal CLint at 1 μmol/L: read-out: Clint (μL/min/mg protein). The protocol: Testing on Metabolic Stability of Compounds in Human Liver Microsomes
The total volume of an incubation system was 250 μL, and 50 mmol/L PBS buffer (pH=7.4) was used to prepare incubation solutions of liver microsomes from various species with a protein concentration of 0.5 mg/mL. Before the start of the incubation, 2.5 μL of a 100 μmol/L compound to be tested was mixed with 197.5 μL of the above incubation solution, pre-incubated in a 37° C. water bath for 5 min, and then added with a 50 μL reducing coenzyme II solution (5 mmol/L) that was likewise pre-incubated for 5 min to start the reaction (in the reaction system, the protein content of liver microsomes from various species was 0.5 g/L, and the final concentration of the compound to be tested was 1 μmol/L), incubated in a 37° C. water bath with shaking, and taken out at 0, 5, 15, 30, and 60 min. 600 μL of a methanol solution of mixed positive and negative internal standards with internal standards Terfenadine (positive ion internal standard, 25 ng/mL) and Tolbutamide (negative ion internal standard, 50 ng/mL) was immediately added to terminate the reaction. The incubation solution after termination was shaken for 2 min and centrifuged (4° C., 16000 r/min) for 10 min, and the supernatant was taken for LC-MS/MS detection to quantitatively analyze the remaining amount of the parent drug. (DMSO<0.1%).
The concentration of the compound at 0 min incubation was regarded as 100%, and the concentrations at other incubation time points were converted into the remaining percentages. The natural logarithm of the remaining percentage at each time point was linearly regressed against the incubation time, and the slope k was calculated. According to the formula T1/2=−0.693/k, the in vitro half-life was calculated. Clearance in liver microsomes (CLint (μL/min/mg protein)=Ln (2)*1000/T1/2 (min)/Protein Conc(mg/ml)).
Test data of metabolic stability of the compounds of the present invention in human liver microsomes are listed in detail in table 3: […]
For orientation: Liver microsomes are a subcellular fraction often used to study metabolism.

A further data set concerns the target TrkA (Homo sapiens, UniProt P04629). The data set is described as follows: Inhibitory activity test for Trk kinases (γ-33P-ATP isotope test), TrkA. It is filed as biochemical. As to conditions: 33P-ATP 10 μM, 2 h reaction; read-out: Kinase IC50 TrkA. The protocol:
as §4, §5, §6, §7, §8, §9, §10, §11, §12

Sequence of TrkC (Q16288 32-839, species assumed): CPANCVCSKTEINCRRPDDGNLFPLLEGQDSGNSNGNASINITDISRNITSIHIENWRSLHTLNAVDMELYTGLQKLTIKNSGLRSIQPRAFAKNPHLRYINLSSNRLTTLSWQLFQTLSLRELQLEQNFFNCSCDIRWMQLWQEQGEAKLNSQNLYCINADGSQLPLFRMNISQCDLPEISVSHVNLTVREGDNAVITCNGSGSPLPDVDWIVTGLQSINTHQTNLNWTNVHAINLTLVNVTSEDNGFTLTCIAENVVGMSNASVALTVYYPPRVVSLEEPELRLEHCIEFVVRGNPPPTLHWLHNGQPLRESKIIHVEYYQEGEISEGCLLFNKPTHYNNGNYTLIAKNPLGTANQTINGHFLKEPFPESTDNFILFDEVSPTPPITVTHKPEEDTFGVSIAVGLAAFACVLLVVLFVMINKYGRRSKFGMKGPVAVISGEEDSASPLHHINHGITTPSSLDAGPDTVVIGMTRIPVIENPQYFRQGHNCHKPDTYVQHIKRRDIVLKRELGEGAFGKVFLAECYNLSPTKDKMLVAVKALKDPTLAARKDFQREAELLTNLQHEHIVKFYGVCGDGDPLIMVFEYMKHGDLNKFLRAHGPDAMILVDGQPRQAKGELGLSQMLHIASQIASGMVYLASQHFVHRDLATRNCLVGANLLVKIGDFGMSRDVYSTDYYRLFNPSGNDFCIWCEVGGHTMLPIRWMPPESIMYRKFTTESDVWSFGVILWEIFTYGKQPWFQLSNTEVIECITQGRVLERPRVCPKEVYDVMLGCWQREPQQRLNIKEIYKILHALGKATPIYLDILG
Sequence of TrkB (Q16620 32-822, species assumed): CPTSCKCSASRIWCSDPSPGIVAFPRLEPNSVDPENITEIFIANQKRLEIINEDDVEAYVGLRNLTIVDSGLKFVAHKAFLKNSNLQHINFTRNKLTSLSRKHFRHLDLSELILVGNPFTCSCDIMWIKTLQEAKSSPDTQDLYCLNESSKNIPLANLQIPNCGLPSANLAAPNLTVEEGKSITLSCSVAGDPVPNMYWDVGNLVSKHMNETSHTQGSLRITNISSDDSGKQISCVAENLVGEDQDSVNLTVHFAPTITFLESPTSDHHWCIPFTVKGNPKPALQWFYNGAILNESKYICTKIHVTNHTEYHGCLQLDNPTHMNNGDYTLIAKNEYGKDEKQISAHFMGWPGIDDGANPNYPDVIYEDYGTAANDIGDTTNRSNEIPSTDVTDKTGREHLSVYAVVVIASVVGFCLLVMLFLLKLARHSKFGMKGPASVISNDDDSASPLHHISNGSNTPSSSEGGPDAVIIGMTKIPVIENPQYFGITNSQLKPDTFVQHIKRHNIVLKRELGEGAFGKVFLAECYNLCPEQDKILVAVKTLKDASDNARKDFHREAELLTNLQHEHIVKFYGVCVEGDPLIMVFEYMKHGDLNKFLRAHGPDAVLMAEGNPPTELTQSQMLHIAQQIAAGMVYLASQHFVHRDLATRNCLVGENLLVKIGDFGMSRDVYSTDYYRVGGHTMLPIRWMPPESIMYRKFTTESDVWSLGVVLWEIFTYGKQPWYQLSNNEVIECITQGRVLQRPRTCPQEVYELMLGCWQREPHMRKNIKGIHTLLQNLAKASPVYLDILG
Sequence of TrkA (P04629 33-796, species assumed): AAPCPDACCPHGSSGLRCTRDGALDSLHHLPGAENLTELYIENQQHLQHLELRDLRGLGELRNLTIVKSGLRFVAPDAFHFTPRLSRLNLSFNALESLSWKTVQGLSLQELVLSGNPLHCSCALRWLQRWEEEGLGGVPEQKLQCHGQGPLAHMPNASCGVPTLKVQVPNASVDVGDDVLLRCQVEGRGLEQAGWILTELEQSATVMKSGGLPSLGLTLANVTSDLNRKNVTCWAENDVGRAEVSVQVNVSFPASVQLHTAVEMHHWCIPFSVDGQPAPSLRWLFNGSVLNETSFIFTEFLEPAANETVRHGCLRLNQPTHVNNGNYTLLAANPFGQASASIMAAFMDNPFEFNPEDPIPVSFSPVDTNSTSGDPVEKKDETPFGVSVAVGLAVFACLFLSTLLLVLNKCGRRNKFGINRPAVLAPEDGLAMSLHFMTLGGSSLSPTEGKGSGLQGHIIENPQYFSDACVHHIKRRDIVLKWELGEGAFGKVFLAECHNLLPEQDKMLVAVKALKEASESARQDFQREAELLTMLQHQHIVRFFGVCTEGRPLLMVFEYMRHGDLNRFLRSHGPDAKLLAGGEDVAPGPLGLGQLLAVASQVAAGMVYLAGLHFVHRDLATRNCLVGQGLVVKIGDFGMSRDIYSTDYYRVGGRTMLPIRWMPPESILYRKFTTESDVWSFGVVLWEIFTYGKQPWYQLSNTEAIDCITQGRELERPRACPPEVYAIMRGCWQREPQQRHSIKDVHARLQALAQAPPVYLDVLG

One may read the GI50 as the concentration at which growth is held to half of that of the control. Usually IC50 stands for the concentration that gives 50% inhibition. By half-life is commonly meant the time in which the quantity being followed falls by half. Read a high half-life as slow decline. As to `O=C1NN(C2CC2)CCc2ncc(F)cc2[C@H]2CCCN2c2ccn3ncc1c3n2` [Example 1, (R,I^3E,I^4E)-6-cyclopropyl-3^5-fluoro-6,7-diazepine-1(5,3)-pyrazolo[1,5-a]pyrimidine-3(3,2)-pyridine-2(1,2)-pyrrolidine cyclooctane-8-one], the GI50 was 12 nM with BaF3-tel-NTRK1 and 15.1 nM with BaF3-LMNA-NTRK1. In addition, the IC50 at TrkC worked out at 0.25 nM; at TrkB, 0.57 nM; at TrkA it was 4.23 nM. In addition, in data set [1], the “Remaining % (60 min)” value is 52.26%. For the same compound, the “Negative control Remaining % (60 min)” value in data set [1] was 98.1%. The compound also returned a half-life at 1 μmol/L in data set [1] of 1.11 h. Also, in data set [1], the microsomal CLint at 1 μmol/L stood at 20.8 µL/min/mg.
For the compound `O=C(Nc1cnn2ccc(N3CCC[C@@H]3c3cc(F)ccc3F)nc12)N1CC[C@H](O)C1` [LOXO-101, reference compound], in the data set on BaF3-tel-NTRK1, the GI50 is 24.6 nM. In the data set with BaF3-LMNA-NTRK1, the GI50 was 35.7 nM. Further, in data set [1], the “Remaining % (60 min)” value came out at 47.78%, the “Negative control Remaining % (60 min)” value was determined as 95.9%, the half-life at 1 μmol/L was determined as 0.987 h and the microsomal CLint at 1 μmol/L stood at 23.4 µL/min/mg.

(Values after patent US11597729B2, “Tropomyosin receptor kinase inhibitor, preparation method therefor and use thereof” (JIANGSU VCARE PHARMATECH CO., LTD., priority 2018, dated 2023).)
